Data as given in patent US8853246B2 (Dow AgroSciences LLC, priority 2009, dated 2014).
Like-named read-outs stand apart in the source and are kept apart here.

Legend:
[1] = test system: Green Peach Aphid (Myzus Persicae); test: Insecticidal test for green peach aphid in foliar spray assay (col. MYZUPE); type: in vivo; conditions: for pest or weed control at 200 ppm: Myzus persicae, 72 h, read-out: MYZUPE 200 ppm (Corrected % Control, rating)
In short: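 Corrected % control derives from microscope counts of live aphids per plant, treated against diluent-only checks, 3 days after foliar spraying at ~25 °C and 40% RH. Test solution was 200 ppm in 0.025% aqueous Tween 20, applied to both leaf sides of infested cabbage seedlings, four pots each.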

[2] = test system: Sweetpotato Whitefly-Crawler (Bemisia Tabaci); test: Insecticidal test for sweetpotato whitefly-crawler in foliar spray assay (col. BEMITA); type: in vivo; conditions: for pest or weed control at 200 ppm: Bemisia tabaci, read-out: BEMITA 200 ppm (Corrected % Control, rating)
In short: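 Percent control, Abbott-corrected against diluent-sprayed plants, from microscope counts of live nymphs 8-9 days after treatment. Test solution at 200 ppm in 0.025% aqueous Tween 20 applied to both leaf sides of egg-infested cotton after a 5-6 day hatch period (82° F, 50% RH).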

Row | SMILES | pest or weed control at 200 ppm ([1]; green peach aphid) [%] | pest or weed control at 200 ppm ([2]; sweetpotato whitefly-crawler) [%] | pest or weed control at 200 ppm ([1]; Abbott's correction formula) [%] | pest or weed control at 200 ppm ([2]; Abbott's correction formula) [%] | other results
1 | Cc1nc(-c2cccnc2)sc1N(C)C(=O)c1ccc([S+](C)[O-])cc1 (stereo not shown) [Compound 402] | – | – | – | – | MYZUPE 200 ppm (Corrected % Control, rating) ([1]; green peach aphid): A (80-100); BEMITA 200 ppm (Corrected % Control, rating) ([2]; sweetpotato whitefly-crawler): A (80-100)
2 | CSCC(C)C(=O)N(COC(=O)c1ccccc1)c1sc(-c2cccnc2)nc1C (stereo not shown) [Compound 203, Benzoic acid [(2-methyl-3-methylsulfanyl-propionyl)-(4-methyl-2-pyridin-3-yl-thiazol-5-yl)-amino]-methyl ester] | 80 to 100 | 80 to 100 | – | – | –
3 | Cc1nc(-c2cccnc2)sc1NC(=O)C1CCN1C(=O)OC(C)(C)C (stereo not shown) [Compound 337] | < 80 | 80 to 100 | – | – | –
4 | CCN(C(=O)CCSC)c1sc(-c2cncc(F)c2)nc1F [Compound 425] | 80 to 100 | 80 to 100 | – | – | –
5 | Cc1nc(-c2cccnc2)sc1N(C)C(=O)CNC(=O)OC(C)(C)C [Compound 276] | 80 to 100 | < 80 | – | – | –
6 | CCOC1(N(C(=O)OC(C)(C)C)c2sc(-c3cccnc3)nc2C)CC1 [Compound 518] | – | – | 80 to 100 | < 80 | –
7 | CN(C(=O)CCS(C)(=O)=O)c1sc(-c2cccnc2)nc1Br [Compound 507] | – | – | 80 to 100 | 80 to 100 | –
8 | CN(C(=O)C1=CC(=O)CC(C)(C)O1)c1sc(-c2cccnc2)nc1Cl [Compound 328] | < 80 | < 80 | – | – | –
9 | CSCC(C)C(=O)N(CC(C)C)c1sc(-c2cccnc2)nc1C (stereo not shown) [Compound 223] | 80 to 100 | 80 to 100 | – | – | –
10 | CN(C(=O)CC(C)(C)[S+](C)[O-])c1sc(-c2cccnc2)nc1Cl (stereo not shown) [Compound 521] | – | – | 80 to 100 | < 80 | –
11 | Cc1nc(-c2cccnc2)sc1N(C)C(=O)C(C)(C)CS(C)(=O)=O [Compound 97] | 80 to 100 | 80 to 100 | – | – | –
12 | CCN(C(=O)c1ccc(C[S+](C)[O-])o1)c1sc(-c2cccnc2)nc1Cl (stereo not shown) [Compound 549] | – | – | 80 to 100 | 80 to 100 | –
13 | Cc1nc(-c2cncc(F)c2)sc1N(C)C(=O)C(C)CSCc1ccc(Cl)cc1 (stereo not shown) [Compound 190] | 80 to 100 | 80 to 100 | – | – | –
14 | CSCC(C)C(=O)N(C(=O)C(C)(C)CSC)c1sc(-c2cccnc2)nc1C (stereo not shown) [Compound 195] | 80 to 100 | 80 to 100 | – | – | –
15 | Cc1nc(-c2cccnc2)sc1N(C)C(=O)c1ccns1 [Compound 345] | – | – | – | – | MYZUPE 200 ppm (Corrected % Control, rating) ([1]; green peach aphid): A (80-100); BEMITA 200 ppm (Corrected % Control, rating) ([2]; sweetpotato whitefly-crawler): A (80-100)
16 | CCN(C(=O)CC(C)SC)c1sc(-c2cncc(F)c2)nc1Cl (stereo not shown) [Compound 446] | – | – | 80 to 100 | 80 to 100 | –
17 | COCC(=O)N1CCCC(C(=O)N(C)c2sc(-c3cncc(F)c3)nc2C)C1 (stereo not shown) [Compound 583] | – | – | 80 to 100 | 80 to 100 | –
18 | CSCC(C)C(=O)N(C(=O)OC(C)(C)C)c1sc(-c2cncc(C)c2)nc1C (stereo not shown) [Compound 156, [4-methyl-2-(5-methyl-pyridin-3-yl)-thiazol-5-yl]-(2-methyl-3-methylsulfanyl-propionyl)-carbamic acid tert-butyl ester] | 80 to 100 | < 80 | – | – | –
19 | COc1cncc(-c2nc(Cl)c(N(C)C(=O)CC[S+](C)[O-])s2)c1 (stereo not shown) [Compound 514] | – | – | < 80 | < 80 | –
20 | CCOC(=O)C(C)C(=O)N(C)c1sc(-c2cccnc2)nc1C (stereo not shown) [Compound 232] | < 80 | 80 to 100 | – | – | –
21 | CCN(C(=O)CC[S+](C)[O-])c1sc(-c2cncc(F)c2)nc1C (stereo not shown) [Compound 256] | 80 to 100 | 80 to 100 | – | – | –
22 | CCN(C(=O)C1C(C=C(Cl)Cl)C1(C)C)c1sc(-c2cccnc2)nc1Cl (stereo not shown) [Compound 552] | – | – | 80 to 100 | < 80 | –
23 | CCOC(=O)c1cncc(-c2nc(C)c(NC(=O)C(C)CSC)s2)c1 (stereo not shown) [Compound 170] | < 80 | < 80 | – | – | –
24 | CC1CC1C(=O)N(C)c1sc(-c2cccnc2)nc1Cl (stereo not shown) [Compound 569] | – | – | 80 to 100 | 80 to 100 | –
25 | CN(C(=O)C1CCSC1)c1sc(-c2cccnc2)nc1Cl (stereo not shown) [Compound 517] | – | – | 80 to 100 | < 80 | –
26 | Cc1nc(-c2cncc(F)c2)sc1NC(=O)C(C)CS(C)(=O)=NC#N (stereo not shown) [Compound 164, 3-[cyano(methyl)sulfonimidoyl]-N-[2-(5-fluoropyridin-3-yl)-4-methyl-1,3-thiazol-5-yl]-2-methylpropanamide] | 80 to 100 | < 80 | – | – | –
27 | CCc1nc(-c2cccnc2)sc1N(C)C(=O)C(F)(F)F [Compound 3, N-(4-Ethyl-2-pyridin-3-yl-thiazol-5-yl)-2,2,2-trifluoro-N-methyl-acetamide] | < 80 | < 80 | – | – | –

Row | SMILES | pest or weed control at 200 ppm ([1]; green peach aphid) [%] | pest or weed control at 200 ppm ([2]; sweetpotato whitefly-crawler) [%] | pest or weed control at 200 ppm ([1]; Abbott's correction formula) [%] | pest or weed control at 200 ppm ([2]; Abbott's correction formula) [%] | other results
28 | C=Cc1nc(-c2cncc(F)c2)sc1N(C)C(=O)OC(C)(C)C [Compound 363, [2-(5-fluoro-pyridin-3-yl)-4-vinyl-thiazol-5-yl]-methyl-carbamic acid-tert-butyl ester] | < 80 | 80 to 100 | – | – | –
29 | Cc1nc(-c2cncc(F)c2)sc1N(C)C(=O)C1CCCNC1 (stereo not shown) [Compound 581] | – | – | < 80 | < 80 | –
30 | CSCCC(=O)N(C)c1sc(-c2cccnc2)nc1C(F)(F)F [Compound 43] | 80 to 100 | 80 to 100 | – | – | –
31 | Cc1nc(C)n(CC(C)C(=O)Nc2sc(-c3cccnc3)nc2C)n1 (stereo not shown) [Compound 332] | 80 to 100 | < 80 | – | – | –
32 | Cc1nc(-c2cncc(F)c2)sc1N(C)C(=O)C(C)C[S+](C)[O-] (stereo not shown) [Compound 86] | 80 to 100 | 80 to 100 | – | – | –
33 | CN(C(=O)C1CCN1C(=O)OC(C)(C)C)c1sc(-c2cccnc2)nc1Cl (stereo not shown) [Compound 339] | – | – | – | – | MYZUPE 200 ppm (Corrected % Control, rating) ([1]; green peach aphid): B (Less than 80); BEMITA 200 ppm (Corrected % Control, rating) ([2]; sweetpotato whitefly-crawler): A (80-100)
34 | Cc1nc(-c2cccnc2)sc1NC(=O)c1ccns1 [Compound 344] | < 80 | < 80 | – | – | –
35 | CCN(C(=O)CC(C)(C)[S+](C)[O-])c1sc(-c2cccnc2)nc1Cl (stereo not shown) [Compound 537] | – | – | 80 to 100 | < 80 | –
36 | CCN(C(=O)c1cnco1)c1sc(-c2cccnc2)nc1Cl [Compound 542] | – | – | 80 to 100 | 80 to 100 | –
37 | CCN(C(=O)C(C)C)c1sc(-c2cccnc2)nc1-c1ccccc1 [Compound 63] | < 80 | < 80 | – | – | –
38 | Cc1nc(-c2cncc(F)c2)sc1N(C)C(=O)C1CCSC1 (stereo not shown) [Compound 214] | 80 to 100 | 80 to 100 | – | – | –
39 | CCN(C(=O)c1ccsc1)c1sc(-c2cccnc2)nc1Cl [Compound 527] | – | – | < 80 | 80 to 100 | –
40 | Cc1nc(-c2cccnc2)sc1NC(=O)C1=CC(=O)CC(C)(C)O1 [Compound 326] | < 80 | < 80 | – | – | –
41 | CCOC(=O)N(C)c1cnc(-c2cncc(F)c2)s1 [Compound 76, [2-(5-Fluoropyridin-3-yl)-thiazol-5-yl]-methyl-carbamic acid ethyl ester] | 80 to 100 | 80 to 100 | – | – | –
42 | CCN(C(=O)C(C)CS(C)(=O)=O)c1sc(-c2cncc(F)c2)nc1C (stereo not shown) [Compound 259] | – | – | – | – | MYZUPE 200 ppm (Corrected % Control, rating) ([1]; green peach aphid): A (80-100); BEMITA 200 ppm (Corrected % Control, rating) ([2]; sweetpotato whitefly-crawler): A (80-100)
43 | COC(=O)/C=C/CN(C(=O)C(C)CSC)c1sc(-c2cccnc2)nc1C (stereo not shown) [Compound 464] | – | – | 80 to 100 | < 80 | –
44 | Cc1nc(-c2cccnc2)sc1NC(=O)CN(C)C(=O)C(C)n1cccn1 (stereo not shown) [Compound 429] | – | – | 80 to 100 | < 80 | –
45 | CCN(C(=O)c1ccnc(C)c1)c1sc(-c2cccnc2)nc1Cl [Compound 544] | – | – | 80 to 100 | < 80 | –
46 | CCC(C)C(=O)N(CC)c1sc(-c2cccnc2)nc1Cl (stereo not shown) [Compound 531] | – | – | 80 to 100 | 80 to 100 | –
47 | CCN(C(=O)CC(C)SC)c1sc(-c2cccnc2)nc1Cl (stereo not shown) [Compound 324] | 80 to 100 | < 80 | – | – | –
48 | CSCCC(=O)N(C)c1sc(-c2cccnc2)nc1Br [Compound 498] | – | – | 80 to 100 | 80 to 100 | –
49 | Cc1nc(-c2cccnc2)sc1N(C)C(=O)c1ccc(=O)n(C)n1 [Compound 404] | – | – | – | – | MYZUPE 200 ppm (Corrected % Control, rating) ([1]; green peach aphid): A (80-100); BEMITA 200 ppm (Corrected % Control, rating) ([2]; sweetpotato whitefly-crawler): B (Less than 80)
50 | CSC(C)C(C)C(=O)N(C)c1sc(-c2cncc(F)c2)nc1Cl (stereo not shown) [Compound 444] | – | – | 80 to 100 | 80 to 100 | –
51 | CCN(C(=O)Cc1ccc(Cl)nc1)c1sc(-c2cccnc2)nc1Cl [Compound 561] | – | – | 80 to 100 | < 80 | –
52 | CN(C(=O)C1CCCC1)c1sc(-c2cccnc2)nc1Cl [Compound 553] | – | – | < 80 | 80 to 100 | –
53 | CSCC[C@H](NC(=O)OC(C)(C)C)C(=O)N(C)c1sc(-c2cccnc2)nc1C [Compound 281] | < 80 | < 80 | – | – | –
